From article PMC9501232, “Novel 4-Azapregnene Derivatives as Potential Anticancer Agents: Synthesis, Antiproliferative Activity and Molecular Docking Studies” (Molecules, 2022)

How the values were obtained:
LNCaP cells = assay: MTT cell proliferation assay, LNCaP; format: cell-based, human; conditions: 72 h; for MTT screening, cell proliferation: 30 µM, average ± SD; for IC50: Homo sapiens, MTT
Procedure: (§1) Cell lines, namely LNCaP, PC-3, T47-D and NHDF were obtained from American Type Culture Collection (ATCC; Manassas, VA, USA) and cultured in 75 cm^2 culture flasks at 37 °C in a humidified air incubator with 5% CO2. LNCaP, PC-3 and T47-D cells, which were used in passages 20th to 27th, 25th to 29th and 10th to 15th, respectively, were cultured in RPMI 1640 medium (Sigma-Aldrich, Inc., St. Louis, MO, USA) with 10% fetal bovine serum (FBS; Sigma-Aldrich, Inc. St. Louis, MO, USA) and 1% of the antibiotic mixture of 10,000 IU/mL penicillin G and […] of streptomycin (Sp, Sigma-Aldrich, Inc. St. Louis, MO, USA). Finally, NHDF cells (Normal Human Dermal Fibroblasts) were cultured in RPMI 1640 medium supplemented with 10% FBS, 2 mM L-glutamine, 10 mM HEPES, 1 mM sodium pyruvate and 1% of an antibiotic/antimycotic mixture (10,000 U/mL penicillin G, 100 mg/mL streptomycin and 25 µg/mL amphotericin B) (Ab; Sigma-Aldrich, Inc. St. Louis, MO, USA), and these cells were used in passages 10 to 12. For all cell types, the medium was renewed every 2–3 days until cells reach nearly the confluence state. Then, they were detached gently by trypsinization (trypsin-EDTA solution: 0.125 g/L of trypsin and 0.02 g/L of EDTA).
(§2) All the stock solutions were prepared by dissolving compounds in dimethyl sulfoxide (DMSO; Sigma-Aldrich, Inc., St. Louis, MO, USA) at 10 mM and stored at 4 °C. From these solutions, the several diluted compounds solutions in different concentrations were freshly prepared in a complete culture medium before each experiment.
(§3) As previously referred, cells were trypsinized after reaching a near confluence state and counted by the trypan blue exclusion assay in a Neubauer chamber. Then, 100 µL of cell suspension/well with an initial density of 2 × 10^4 cells/mL were seeded in 96-well culture plates (Nunc, Apogent, Denmark) and left to adhere for 48 h. After cells adherence, the medium was replaced by the distinct solutions of the compounds in the study (30 µM for preliminary studies and 0.01, 0.1, 1, 10, 50 and 100 µM for concentration–response studies) in the appropriate medium for approximately 72 h. 5-FU and finasteride were used as positive controls and untreated cells were used as the negative control. Each experiment was performed in quadruplicate and independently performed at least two times. The in vitro antiproliferative effects were evaluated by the MTT assay (Sigma-Aldrich, Inc. St. Louis, USA). After the incubation period, the medium was removed and 100 µL of phosphate buffer saline (NaCl 137 mM, KCl 2.7 mM, Na2HPO4 10 mM and KH2PO4 1.8 mM in deionized water and pH adjusted to 7.4) were used to wash the cells. Then, 100 µL of the MTT solution (5 mg/mL) was prepared in the appropriate serum-free medium and was added to each well, followed by incubation for 4 h at 37 °C. Hereafter, the MTT containing medium was removed and the formazan crystals were dissolved in DMSO. Then the absorbance was measured at 570 nm using a microplate spectrophotometer BIO-RAD xMarkTM. Cell viability values were expressed as percentages relative to the absorbance determined in the cells used as negative controls.
(§4) The data are expressed as a mean ± standard deviation (SD) and differences between groups were considered statistically significant when p < 0.05. The IC50 values were determined through sigmoidal fitting analysis with variable slope and considering a 95% confidence level. All data shown are representative of at least two independent experiments.

PC-3 cells = assay: MTT cell proliferation assay, PC-3; format: cell-based, human; conditions: for MTT screening, cell proliferation: PC-3, 30 µM, 72 h, average ± SD; for IC50: Homo sapiens, PC-3, 72 h, MTT
Procedure: as §1, §2, §3, §4

T47-D cells [1] = assay: MTT cell proliferation assay, T47-D; format: cell-based, human; conditions: 72 h; for MTT screening, cell proliferation: 30 µM, average ± SD; for IC50: Homo sapiens, T47D, MTT
Procedure: as §1, §2, §3, §4

[2] = tested on: NHDF cells (Normal Human Dermal Fibroblasts); assay: MTT cell proliferation assay, NHDF; format: cell-based; conditions: 72 h; for MTT screening, cell proliferation: 30 µM, average ± SD; for IC50: Homo sapiens, MTT
Procedure: as §1, §2, §3, §4

T47-D cells [3] = assay: Cell nuclear morphology and distribution analysis with ImageJ; format: cell-based, human; conditions: 20 µM, 48 and 72 h
Source text: The nuclear measurements were achieved by converting 16-bit photomicrographs of Hoechst 3342-stained nuclei, in different conditions, into 8-bit images and then these images were autothresholded to binary photos using the default method “Make binary” function of ImageJ v 1.49. Cell nuclei that are touching were separated and fragments were discarded based on the area through the “Analyze Particle” function. This function also provides several information pretended as nuclear area, circumference and form factor [33]. In addition, the “Nearest Neighbor Distance” was determined. This function allows measuring the distance between each cell nucleus and the nearest ones.

[4] = tested on: caspase-9 activity in T47-D cells; assay: Caspase-Glo 9 caspase-9 activity assay; format: cell-based, human; conditions: 48 h, DOX 10 µM, 3g 10 and 20 µM, relative to untreated cells
Procedure: Promega Caspase-Glo 9 assay (Promega, Madison, WI, USA) was employed to evaluate the caspase-9 activity. T47-D cells were seeded in a 96 multiwell plate at a density of 4 × 10^4 cells/mL. After 48 h, cells were treated with the positive control, DOX, at 10 μM and with 10 and 20 μM of 3g, during 48 h. The assay was performed at the end of treatment, following the instructions provided by the manufacturer. Data are representative of at least two experiments (n = 4 in each).

Row | Compound | MTT screening, cell proliferation (LNCaP cells) | MTT screening, cell proliferation (PC-3 cells) | MTT screening, cell proliferation (T47-D cells [1]) | MTT screening, cell proliferation [2] | melting point [°C] | IC50 (LNCaP cells) [µM] | IC50 (PC-3 cells) [µM] | IC50 (T47-D cells [1]) [µM] | IC50 [2] [µM] | Nearest neighbor distance (NND) of cell nuclei (T47-D cells [3]) | Caspase-9 activity [4]
1 | 4-Azapregn-4-ene-3,20-dione [Compound 2] | 58.3 ± 13.6 percentage of negative control | 96.7 ± 9.3 percentage of negative control | 137.0 ± 18.0 percentage of negative control | 106.1 ± 6.0 percentage of negative control | – | – | – | – | – | – | –
2 | CC(=O)[C@H]1CCC2C3CCC(=O)[C@](C)(CCC(=O)O)C3CC[C@@]21C (stereo partly drawn) [Compound 1] | 96.4 ± 16.1 percentage of negative control | 102.1 ± 5.2 percentage of negative control | 130.8 ± 20.8 percentage of negative control | 100.0 ± 6.0 percentage of negative control | 168 to 169 | – | – | – | – | – | –
3 | C[C@]12CC[C@H]3[C@@H](CC=C4NC(=O)CC[C@@]43C)[C@@H]1CC[C@@H]2C(=O)/C=C/c1ccccc1 [Compound 3a, 21E-(Phenylmethylidene)-4-azapregn-5-ene-3,20-dione] | 6.5 ± 5.3 percentage of negative control | 1.4 ± 1.0 percentage of negative control | 6.5 ± 5.4 percentage of negative control | 25.1 ± 7.4 percentage of negative control | – | 27.5 | 12.6 | 16.9 | 64 | – | –
4 | Cc1ccc(/C=C/C(=O)[C@H]2CC[C@H]3[C@@H]4CC=C5NC(=O)CC[C@]5(C)[C@H]4CC[C@]23C)cc1 [Compound 3b, 21E-[(4-Methylphenyl)methylidene]-4-azapregn-5-ene-3,20-dione] | 62.7 ± 9.0 percentage of negative control | 25.9 ± 3.8 percentage of negative control | 45.0 ± 11.6 percentage of negative control | 83.0 ± 3.6 percentage of negative control | 191 to 193 | – | 25.9 | 45 | – | – | –
5 | C[C@]12CC[C@H]3[C@@H](CC=C4NC(=O)CC[C@@]43C)[C@@H]1CC[C@@H]2C(=O)/C=C/c1ccc([N+](=O)[O-])cc1 [Compound 3c, 21E-[(4-Nitrophenyl)methylidene]-4-azapregn-5-ene-3,20-dione] | 5.2 ± 2.6 percentage of negative control | 0.7 ± 0.5 percentage of negative control | 6.7 ± 4.6 percentage of negative control | 20.3 ± 2.8 percentage of negative control | – | 16.3 | 3.29 | 6.56 | 6.94 | – | –
6 | COc1ccc(/C=C/C(=O)[C@H]2CC[C@H]3[C@@H]4CC=C5NC(=O)CC[C@]5(C)[C@H]4CC[C@]23C)cc1 [Compound 3d, 21E-[(4-Methoxyphenyl)methylidene]-4-azapregn-5-ene-3,20-dione] | 88.0 ± 15.5 percentage of negative control | 58.2 ± 6.0 percentage of negative control | 73.9 ± 14.6 percentage of negative control | 52.4 ± 2.8 percentage of negative control | 280 to 282 | – | – | – | – | – | –
7 | C[C@]12CC[C@H]3[C@@H](CC=C4NC(=O)CC[C@@]43C)[C@@H]1CC[C@@H]2C(=O)/C=C/c1ccco1 [Compound 3e, 21E-[(Furan-2-yl)methylidene]-4-azapregn-5-ene-3,20-dione] | 85.3 ± 6.7 percentage of negative control | 82.7 ± 6.5 percentage of negative control | 92.6 ± 7.4 percentage of negative control | 111.6 ± 13.9 percentage of negative control | 260 to 261 | – | – | – | – | – | –
8 | Cc1ccc(/C=C/C(=O)[C@H]2CC[C@H]3[C@@H]4CC=C5NC(=O)CC[C@]5(C)[C@H]4CC[C@]23C)o1 [Compound 3f, 21E-[(5-Methylfuran-2-yl)methylidene]-4-azapregn-5-ene-3,20-dione] | 88.9 ± 17.7 percentage of negative control | 108.1 ± 7.8 percentage of negative control | 104.3 ± 11.3 percentage of negative control | 89.7 ± 9.7 percentage of negative control | 200 to 203 | – | – | – | – | – | –
9 | O=c1[nH]cc(F)c(=O)[nH]1 [Compound 5-FU, 5-fluorouracil, reference compound] | 18.6 ± 2.6 percentage of negative control | 10.8 ± 3.1 percentage of negative control | 42.3 ± 6.4 percentage of negative control | 33.6 ± 8.2 percentage of negative control | – | 1.5 | 3.3 | 0.7 | 29.4 | different distances | –
10 | C[C@]12CCC(=O)C[C@@H]1CC[C@@H]1[C@@H]2CC[C@]2(C)[C@@H](O)CC[C@@H]12 [DHT, 5α-dihydrotestosterone, reference compound] | 138.9 ± 3.9 percentage of negative control | 93.1 ± 4.9 percentage of negative control | 90.7 ± 9.4 percentage of negative control | 100.5 ± 7.4 percentage of negative control | – | – | – | – | – | – | –
11 | COc1cccc2c1C(=O)c1c(O)c3c(c(O)c1C2=O)C[C@@](O)(C(=O)CO)C[C@@H]3O[C@H]1C[C@H](N)[C@H](O)[C@H](C)O1 [DOX, doxorubicin, reference compound] | – | – | – | – | – | – | – | – | – | – | significant elevation in caspase-9 activity
12 | CC(=O)[C@H]1CC[C@H]2[C@@H]3CCC4=CC(=O)CC[C@]4(C)[C@H]3CC[C@]12C [Progesterone, reference compound] | 64.3 ± 16.1 percentage of negative control | 42.9 ± 5.4 percentage of negative control | 62.9 ± 6.8 percentage of negative control | 96.6 ± 14.3 percentage of negative control | – | – | – | – | – | – | –
13 | C[C@]12CC[C@H]3[C@@H](CCC4=CC(=O)CC[C@@]43C)[C@@H]1CC[C@@H]2O [Testosterone, reference compound] | 99.2 ± 4.2 percentage of negative control | 89.5 ± 9.0 percentage of negative control | 72.0 ± 4.0 percentage of negative control | 94.2 ± 7.3 percentage of negative control | – | – | – | – | – | – | –
